Assay: Laser Diffraction Measurement of Particle Size of primary particles
Assay type: physicochemical
Conditions: pemafibrate used in Test Examples; Japanese Pharmacopoeia 17th Edition laser diffraction

CC[C@@H](Oc1cccc(CN(CCCOc2ccc(OC)cc2)c2nc3ccccc3o2)c1)C(=O)O [pemafibrate, (2R)-2-[3-([1,3-Benzoxazol-2-yl[3-(4-methoxyphenoxy)propyl]amino]methyl)phenoxy]butanoic acid]
d50 value (average particle diameter of primary particles): ≤ 100 μm
d90 value (average particle diameter of primary particles): ≤ 200 μm
